This note sets out measurements from patent US20240101572A1, “DIHYDROOXADIAZINONE COMPOUND AND PHARMACEUTICAL USE THEREOF” (Japan Tobacco Inc., priority 2022, published 2024).

The IC50 is the concentration that gives 50% inhibition. As usually defined, the inhibition is the percentage by which the read-out fell short of the control.

Like-named read-outs stand apart in the source and are kept apart here.

One experiment concerns the target full-length human PLD2 (Homo sapiens (Human), UniProt O14939). Nature of the experiment: Evaluation of human PLD2 enzyme inhibitory activity (Amplex Red / choline oxidase fluorescence). It counts as biochemical. The settings on record: for IC50: full-length human PLD2 enzyme, read-out: PLD2 IC50. The protocol:
A method for measuring human PLD2 enzyme inhibitory activity using an enzyme in which a FLAG-tag is added to the N-terminus of full-length human PLD2 (1-933 amino acids) is shown below.
(§1) DNA fragment in which a FLAG-tag sequence is added to the 5′-end of full-length human PLD2 was amplified by PCR method, using commercially available human PLD2 gene (Promega KK) as a template. The amplified DNA fragment was fused with vector pVL1393 for baculovirus production (Pharmingen) digested with BamHI and EcoRI, using In-Fusion HD Cloning Kit (Takara Bio). The full-length human PLD2-expression plasmid DNA for baculovirus was isolated from Escherichia coli DH5a (TOYOBO) transformed with the obtained In-Fusion reaction product. Next, DNA fragment in which a FLAG-tag sequence is added to the 5′-end of full-length human PLD2 was amplified by PCR method, using the full-length human PLD2-expression plasmid DNA for baculovirus as a template. The amplified DNA fragment was fused with a DNA fragment in which a linker sequence is introduced into pcDNA3.4-TOPO (Life Technologies), using In-Fusion HD Cloning Kit (Takara Bio). The full-length human PLD2-expression plasmid DNA for animal cells was isolated from Escherichia coli DH5a transformed with the obtained In-Fusion reaction product. The base sequence of the full-length human PLD2 cloned into vector was determined by a Dye Terminator method using BigDye Terminator v3.1 Cycle Sequencing Kit (Applied Biosystems). The determined sequence was a sequence in which the FLAG-tag sequence was inserted at the 5′-end of the full-length human PLD2 (GenBank Accession Number: NM 002663).
(§2) Expi293F cells (Life Technologies) were cultured with shaking using Expi293 Expression Medium (Life Technologies) as a medium at 37° C. in the presence of 8% CO2. The gene introduction reagent PEI was prepared by dissolving Polyethylenimine Max (nominally MW 40,000) (Polysciences) in MilliQ water, adjusting the pH of the solution to 7.0 with NaOH to obtain a 1 mg/mL solution, and then filtering the solution through 0.22 μm filter. The full-length human PLD2-expression plasmid DNA for animal cells was transfected into Expi293F cells using PEI, and after 48 hours of shaking culture, the cells were collected and stored at −80° C.
(§3) To the full-length human PLD2-expressed cells was added a Homogenate buffer (20 mmol/L Na-phosphate pH 7.5, 250 mmol/L NaCl, 1 mmol/L MgCl2, 1% β-OG, 0.05 mmol/L DTT+complete EDTA-free (Roche Diagnostics K.K.)), and the cells were lysed by Microfluidizer Processor M-110EH (Mizuho Kogyo Co., Ltd.). The lysate was centrifuged at 10,100×g at 4° C. for 15 minutes, and the supernatant was collected and filtered through 0.45 μm filter. To the centrifuged supernatant was added ANTI-FLAG M2 Affinity Gel (SIGMA-Aldrich) resin equilibrated with a Homogenate buffer, and the mixed solution was stirred at 4° C. for 1 hr or more. The mixed solution was loaded onto Poly-Prep column, and the resin was washed with a Wash buffer (20 mmol/L Na-phosphate pH 7.5, 150 mmol/L NaCl, 1 mmol/L MgCl2, 0.02% Triton, 0.05 mmol/L DTT). A Wash buffer containing 400 μg/mL DYKDDDDK Peptide (Scrum Inc.) was added to the column to elute the protein bound to the resin. The eluted fractions were subjected to SDS-PAGE followed by CBB staining to identify the fractions containing the full-length human PLD2. The eluted fractions of the full-length human PLD2 were collected and concentrated using Amicon Ultra-15 100k (Merck Millipore). The concentrated fractions were collected, flash-frozen in liquid nitrogen and stored at −80° C.
(§4) A DMSO or test substance solution (the DMSO final concentration: 5%) prepared by diluting DMSO or test substance with an Assay buffer (50 mmol/L HEPES pH 7.5, 80 mmol/L KCl, 3 mmol/L EGTA, 3.6 mmol/L MgCl2, 0.01% NP-40, 0.1% BSA), and the solution was added to a 384 well Assay Plate (Black, Polystyrene, Non-Treated, Cat No. 3573, Corning) by 5 μL/well. […]

The target of the next experiment is full-length human PLD1 (Homo sapiens (Human), UniProt Q13393). Nature of the experiment: Evaluation of human PLD1 enzyme inhibitory activity (Amplex Red / choline oxidase fluorescence). It counts as biochemical. To be noted: for IC50: full-length human PLD1 enzyme, read-out: PLD1 IC50. The protocol: A method for measuring human PLD1 enzyme inhibitory activity using an enzyme in which a FLAG-tag is added to the N-terminus of full-length human PLD1 (1-1036 amino acids) is shown below.
as §1, with “PLD1” for “PLD2”, “PLD1-expression” for “PLD2-expression”, “NM_001130081).” for “NM 002663).”
as §2, with “PLD1-expression” for “PLD2-expression”
as §3, with “PLD1-expressed” for “PLD2-expressed”, “PLD1.” for “PLD2.”, “PLD1” for “PLD2”
as §4

Sequence of full-length human PLD1 (Q13393 other isoform, or with tags, fused parts or gaps): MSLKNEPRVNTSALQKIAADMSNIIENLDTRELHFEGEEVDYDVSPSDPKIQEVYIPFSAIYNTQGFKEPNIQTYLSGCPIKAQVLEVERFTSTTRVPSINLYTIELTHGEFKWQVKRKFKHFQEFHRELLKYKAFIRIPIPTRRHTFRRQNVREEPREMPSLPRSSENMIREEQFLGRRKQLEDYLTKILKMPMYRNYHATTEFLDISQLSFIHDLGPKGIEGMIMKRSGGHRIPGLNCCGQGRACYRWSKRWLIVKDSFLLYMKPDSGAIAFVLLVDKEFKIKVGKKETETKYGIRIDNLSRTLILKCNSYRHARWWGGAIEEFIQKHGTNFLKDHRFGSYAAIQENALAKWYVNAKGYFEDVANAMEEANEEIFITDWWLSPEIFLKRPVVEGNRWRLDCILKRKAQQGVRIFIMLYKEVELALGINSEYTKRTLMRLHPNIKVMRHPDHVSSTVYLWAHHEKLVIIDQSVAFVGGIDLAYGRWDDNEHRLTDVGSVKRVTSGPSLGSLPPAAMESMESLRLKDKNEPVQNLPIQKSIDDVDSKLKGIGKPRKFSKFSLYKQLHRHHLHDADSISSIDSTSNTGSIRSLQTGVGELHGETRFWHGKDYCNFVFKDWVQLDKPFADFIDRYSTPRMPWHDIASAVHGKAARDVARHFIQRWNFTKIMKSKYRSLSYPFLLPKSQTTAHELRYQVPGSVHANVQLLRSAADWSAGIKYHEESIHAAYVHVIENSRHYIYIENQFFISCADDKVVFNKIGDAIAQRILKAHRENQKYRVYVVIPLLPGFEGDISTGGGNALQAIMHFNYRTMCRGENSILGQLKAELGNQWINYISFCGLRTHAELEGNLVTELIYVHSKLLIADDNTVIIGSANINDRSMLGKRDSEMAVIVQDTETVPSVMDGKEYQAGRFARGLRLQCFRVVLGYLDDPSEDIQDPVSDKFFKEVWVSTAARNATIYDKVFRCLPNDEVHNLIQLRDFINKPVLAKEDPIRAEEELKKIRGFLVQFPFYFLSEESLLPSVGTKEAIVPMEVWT
Sequence of full-length human PLD2 (O14939 whole entry, the tested form may be a part): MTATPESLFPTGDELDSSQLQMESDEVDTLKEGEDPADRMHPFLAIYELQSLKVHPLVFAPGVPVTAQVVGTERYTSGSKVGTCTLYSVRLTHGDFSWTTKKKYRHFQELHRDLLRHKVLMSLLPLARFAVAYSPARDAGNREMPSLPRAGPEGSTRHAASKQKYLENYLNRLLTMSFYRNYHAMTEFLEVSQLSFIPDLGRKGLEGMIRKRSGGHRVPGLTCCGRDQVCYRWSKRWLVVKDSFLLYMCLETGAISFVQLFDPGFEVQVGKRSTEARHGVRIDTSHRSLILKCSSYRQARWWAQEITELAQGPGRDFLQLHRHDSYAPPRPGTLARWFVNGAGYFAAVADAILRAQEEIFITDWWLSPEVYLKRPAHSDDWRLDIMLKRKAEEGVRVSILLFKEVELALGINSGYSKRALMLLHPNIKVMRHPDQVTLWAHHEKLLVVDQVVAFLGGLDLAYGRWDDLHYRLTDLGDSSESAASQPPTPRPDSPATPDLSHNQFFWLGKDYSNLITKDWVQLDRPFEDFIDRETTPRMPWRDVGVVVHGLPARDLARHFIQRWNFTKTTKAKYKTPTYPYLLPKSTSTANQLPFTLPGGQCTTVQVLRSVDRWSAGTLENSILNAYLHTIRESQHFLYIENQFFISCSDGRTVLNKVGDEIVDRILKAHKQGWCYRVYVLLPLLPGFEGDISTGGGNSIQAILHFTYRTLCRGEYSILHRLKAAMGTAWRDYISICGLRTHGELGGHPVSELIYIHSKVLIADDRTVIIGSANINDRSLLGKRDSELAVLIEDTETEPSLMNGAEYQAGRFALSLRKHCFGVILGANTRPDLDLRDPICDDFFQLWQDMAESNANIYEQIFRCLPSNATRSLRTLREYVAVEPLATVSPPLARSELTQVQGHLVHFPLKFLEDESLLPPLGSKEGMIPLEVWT

As to `CNC(=O)C(=O)N[C@@H](C)C[C@H]1CC[C@]2(CC1)OC(=O)NN=C2c1cnc(N2CCC(F)(F)CC2)cc1Cl` [Example 274], the concentration for half-maximal inhibition (IC50) at full-length human PLD2 was less than 10 nM; on full-length human PLD1 it was 17 nM.
Turning to `C[C@@H](C[C@H]1CC[C@]2(CC1)OC(=O)NN=C2c1ccc(F)cc1Cl)NC(=O)c1cc2cc(S(C)(=O)=O)ccc2[nH]1` [Example 62], the IC50 on full-length human PLD2 was 223 nM; at full-length human PLD1, 140 nM.
With `CNC(=O)C(=O)N[C@@H](C)C[C@H]1CC[C@]2(CC1)OC(=O)NN=C2c1cc(N2CCOCC2)ccc1C` [Example 256], the IC50 on full-length human PLD2 was less than 10 nM; on full-length human PLD1, 27 nM.
`CSc1ccccc1C1=NNC(=O)O[C@]12CC[C@@H](C[C@H](C)NC(=O)c1cc(Cl)no1)CC2` [Example 79]: the 50% inhibitory concentration (IC50) at full-length human PLD2 and on full-length human PLD1 was less than 10 nM each time.
As to `C[C@@H](C[C@H]1CC[C@]2(CC1)OC(=O)NN=C2c1ccc(Br)cc1)NC(=O)c1cc2ccccc2o1` [Example 50], the 50% inhibitory concentration (IC50) was found to be 51 nM at full-length human PLD2 and 33 nM at full-length human PLD1.
The matching figures for `C[C@@H](CN1CCC2(CC1)OC(=O)NN=C2c1ccc(F)cc1Br)NC(=O)C(=O)NC1CC1` [Example 180]: 12 nM and 28 nM.
`Cc1cc(C(=O)N[C@@H](C)C[C@]2(O)CC[C@@]3(CC2)OC(=O)NN=C3c2ccc(F)cc2Br)[nH]n1` [Example 322, N—((S)-1-(trans-5-(2-bromo-4-fluorophenyl)-9-hydroxy-2-oxo-1-oxa-3,4-diazaspiro[5,5]undec-4-en-9-yl)propan-2-yl)-3-methyl-1H-pyrazole-5-carboxamide]: the half-maximal inhibitory concentration (IC50) is less than 10 nM at full-length human PLD2 and 30 nM at full-length human PLD1.
`Cc1cc(C(=O)N[C@@H](C)CC2CC[C@]3(C[C@@H]2F)OC(=O)NN=C3c2ccc(F)cc2Br)[nH]n1` (stereo partly drawn) [Example 286]: the figures for the half-maximal inhibitory concentration (IC50) at full-length human PLD2 and at full-length human PLD1 were less than 10 nM and 14 nM, respectively.
The matching figures for `CNC(=O)C(=O)N[C@@H](C)C[C@H]1CC[C@]2(CC1)OC(=O)NN=C2c1cc(C(=O)OC)ccc1Br` [Example 2-032]: less than 10 nM and 11 nM.
Regarding `Cc1cc(C(=O)N[C@@H](C)C[C@H]2CC[C@]3(CC2)OC(=O)NN=C3c2ccc(F)cc2Cl)[nH]n1` [Example 45], the values for the half-maximal inhibitory concentration (IC50) on full-length human PLD2 and at full-length human PLD1 were 23 nM and 27 nM, respectively.
For the compound `C[C@@H](CN1CCC2(CC1)OC(=O)NN=C2c1cc(C#N)ccc1Br)NC(=O)c1ccccc1C(F)(F)F` [Example 2-029], the IC50 at full-length human PLD2 was 8410 nM; on full-length human PLD1, 1510 nM.
As to `C[C@@H](C[C@H]1CC[C@]2(CC1)OC(=O)NN=C2c1nccn1CC1CC1)NC(=O)c1cc2ccccc2o1` [Example 84], the values for the half-maximal inhibitory concentration (IC50) on full-length human PLD2 and on full-length human PLD1 were 53 nM and 70 nM, respectively.
Turning to `C[C@@H](C[C@H]1CC[C@]2(CC1)OC(=O)NN=C2c1ccc(C#N)cc1Br)NC(=O)c1cc(Cl)no1` [Example 71], the concentration for half-maximal inhibition (IC50) on full-length human PLD2 and on full-length human PLD1 was less than 10 nM in each case.
As to `C[C@@H](C[C@H]1CC[C@]2(CC1)OC(=O)NN=C2c1ccc(C#N)cc1Br)NC(=O)N1Cc2ccccc2C1` [Example 109], the IC50 on full-length human PLD2 was less than 10 nM; at full-length human PLD1, 12 nM.
In the case of `Cc1cnc(C(=O)N[C@@H](C)C[C@H]2CC[C@]3(CC2)OC(=O)NN=C3c2ccc(F)cc2Br)cn1` [Example 253], the results for the 50% inhibitory concentration (IC50) at full-length human PLD2 and on full-length human PLD1 were 324 nM and 252 nM, respectively.
`C[C@@H](CN1CCC2(CC1)OC(=O)NN=C2c1ccc(C#N)cc1Br)NC(=O)c1cc(Cl)no1` [Example 2-061]: the half-inhibitory concentration (IC50) is less than 10 nM at full-length human PLD2 and 14 nM at full-length human PLD1.
Taken in the same sequence, the figures for `Cc1cc(C(=O)NC(C)CN2CCC3(CC2)OC(=O)NN=C3c2cccc(F)c2Br)[nH]n1` (stereo not drawn) [Example 2-031] were less than 10 nM and 19 nM.
The matching figures for `Cc1cc(F)ccc1C1=NNC(=O)O[C@]12CC[C@@H](C[C@H](C)NC(=O)N1Cc3ccccc3C1)CC2` [Example 101]: less than 10 nM and less than 10 nM.
Taken in the same sequence, the figures for `C[C@@H](C[C@H]1CC[C@]2(CC1)OC(=O)NN=C2c1ccc(F)cc1Br)NC(=O)C1(O)COC1` [Example 123] were 502 nM and 202 nM.
In the case of `CNC(=O)C(=O)N[C@@H](C)C[C@]1(C#N)CC[C@@]2(CC1)OC(=O)NN=C2c1cc(OCC(F)F)ncc1Br` [Example 2-099], the inhibition at 10 µM on full-length human PLD1 (read-out: human PLD1 % inhibition at 10 μM) and at full-length human PLD1 (read-out: inhibition rate of PLD1 at 10 μM compound) was 21% throughout.
`CNC(=O)C(=O)N[C@@H](C)C[C@]1(C#N)CC[C@@]2(CC1)OC(=O)N(C)N=C2c1cc(C#N)ccc1Br` [Example 2-112]: the inhibition at 10 µM at full-length human PLD2 (read-out: human PLD2 % inhibition at 10 μM) and on full-length human PLD2 (read-out: inhibition rate of PLD2 at 10 μM compound) was 39% throughout.
